In ChEMBL document CHEMBL5608201, “Discovery and optimization of thiazole-based quorum sensing inhibitors as potent blockers of Pseudomonas aeruginosa pathogenicity” (Eur J Med Chem, 2024):
Converted amounts (≈) assume the structure as drawn.

Tests used:
[1] = system: Pseudomonas aeruginosa; experiment: Antivirulence activity against Pseudomonas aeruginosa PA14 assessed as inhibition of pyocyanin biosynthesis incubated for 16 hrs under agitation by photometric analysis; assay type: functional, organism-based; conditions: PA14, 16 h
[2] = target: T1, Transcriptional regulator MvfR (Pseudomonas aeruginosa PA14, UniProt A0A072ZLE6); experiment: Inverse agonist activity at Pseudomonas aeruginosa PqsR extracted from Escherichia coli Dh5alpha co-expressing lacZ incubated with test compound in presence of pseudomonas quinolone signal (PQS) by ONPG/heterologous reporter gene assay
T1 sequence (A0A072ZLE6 whole entry): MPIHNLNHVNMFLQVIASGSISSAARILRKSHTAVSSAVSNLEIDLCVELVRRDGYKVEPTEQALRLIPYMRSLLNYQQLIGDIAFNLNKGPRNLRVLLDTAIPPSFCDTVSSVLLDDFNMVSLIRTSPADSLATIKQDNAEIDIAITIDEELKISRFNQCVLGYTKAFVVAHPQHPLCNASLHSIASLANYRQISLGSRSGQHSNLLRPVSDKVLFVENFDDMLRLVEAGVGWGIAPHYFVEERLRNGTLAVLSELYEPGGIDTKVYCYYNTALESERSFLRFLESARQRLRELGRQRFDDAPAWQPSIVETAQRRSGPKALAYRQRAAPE

[3] = Metabolic stability in mouse liver microsomes assessed as half life at 1 uM measured after 30 mins by HPLC-MS/MS analysis; assay type: ADME, Microsome
[4] = Kinetic aqueous solubility of the compound in PBS buffer incubated for 5 mins by turbidimetric aqueous solubility assay; assay type: physicochemical; conditions: read-out: Kinetic_solubility
[5] = Lipophilicity, log D of the compound; assay type: physicochemical; conditions: octanol/water
[6] = Metabolic stability in human liver S9 fraction assessed as half life; assay type: ADME, subcellular
[7] = target: T2, CYP1A (Homo sapiens, UniProt P04798+P05177); experiment: Inhibition of CYP1A (unknown origin); assay type: ADME, protein assay
T2 sequence (P04798 whole entry): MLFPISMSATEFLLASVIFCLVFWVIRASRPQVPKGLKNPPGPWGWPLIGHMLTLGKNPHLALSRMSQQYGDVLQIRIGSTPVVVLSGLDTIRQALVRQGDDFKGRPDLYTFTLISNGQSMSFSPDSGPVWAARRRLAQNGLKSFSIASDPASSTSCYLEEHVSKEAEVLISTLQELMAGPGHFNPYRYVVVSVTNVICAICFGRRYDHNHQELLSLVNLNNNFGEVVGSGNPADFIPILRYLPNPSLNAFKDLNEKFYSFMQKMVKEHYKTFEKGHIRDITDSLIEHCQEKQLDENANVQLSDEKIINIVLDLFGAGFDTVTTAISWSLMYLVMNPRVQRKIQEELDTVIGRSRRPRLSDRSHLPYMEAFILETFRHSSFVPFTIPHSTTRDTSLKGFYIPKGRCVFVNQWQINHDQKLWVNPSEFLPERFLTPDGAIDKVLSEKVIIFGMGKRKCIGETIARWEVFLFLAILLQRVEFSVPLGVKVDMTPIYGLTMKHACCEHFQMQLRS
T2 sequence (P05177 whole entry): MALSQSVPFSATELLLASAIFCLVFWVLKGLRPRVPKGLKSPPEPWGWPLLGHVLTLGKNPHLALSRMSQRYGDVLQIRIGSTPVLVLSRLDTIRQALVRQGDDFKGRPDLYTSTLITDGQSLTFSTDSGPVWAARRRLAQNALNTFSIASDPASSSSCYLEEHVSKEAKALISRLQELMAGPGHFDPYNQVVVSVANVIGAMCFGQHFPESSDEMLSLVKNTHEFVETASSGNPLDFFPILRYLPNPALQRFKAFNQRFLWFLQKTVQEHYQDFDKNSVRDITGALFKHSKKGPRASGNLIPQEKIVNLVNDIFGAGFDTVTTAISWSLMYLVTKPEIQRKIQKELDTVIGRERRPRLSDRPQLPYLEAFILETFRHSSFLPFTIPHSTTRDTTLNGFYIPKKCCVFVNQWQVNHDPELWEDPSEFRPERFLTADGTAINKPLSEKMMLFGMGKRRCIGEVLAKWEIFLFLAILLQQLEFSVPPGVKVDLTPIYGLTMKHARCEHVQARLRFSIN

[8] = Cytotoxicity against human HEK293 cells assessed as viable cells at 25 uM relative to control; assay type: toxicity, cell-based; conditions: read-out: Activity
[9] = Plasma protein binding in mouse; assay type: ADME, cell-free; conditions: read-out: PPB
[10] = target: Cytochrome P450 2D6 (Homo sapiens, UniProt P10635); experiment: Inhibition of CYP2D6 (unknown origin); assay type: ADME
Sequence of Cytochrome P450 2D6 (P10635 whole entry): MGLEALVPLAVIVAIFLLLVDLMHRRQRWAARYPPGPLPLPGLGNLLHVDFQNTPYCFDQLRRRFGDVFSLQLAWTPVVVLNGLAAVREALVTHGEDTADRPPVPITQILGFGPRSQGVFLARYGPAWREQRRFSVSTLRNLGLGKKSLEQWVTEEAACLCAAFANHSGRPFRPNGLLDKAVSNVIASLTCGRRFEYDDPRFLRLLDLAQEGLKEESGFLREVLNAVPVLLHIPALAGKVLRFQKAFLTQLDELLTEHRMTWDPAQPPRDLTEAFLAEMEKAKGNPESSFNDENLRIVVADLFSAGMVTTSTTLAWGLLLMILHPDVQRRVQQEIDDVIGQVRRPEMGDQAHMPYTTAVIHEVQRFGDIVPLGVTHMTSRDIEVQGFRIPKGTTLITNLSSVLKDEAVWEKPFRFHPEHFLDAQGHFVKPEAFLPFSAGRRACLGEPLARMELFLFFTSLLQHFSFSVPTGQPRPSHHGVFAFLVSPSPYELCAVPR

[11] = Cytotoxicity against human HepG2 cells assessed as viable cells at 25 uM relative to control; assay type: toxicity, cell-based; conditions: read-out: Activity
[12] = Cytotoxicity against human HepG2 cells assessed as viable cells; assay type: toxicity, cell-based; conditions: read-out: LD50 (the source's name)
[13] = Cytotoxicity against human HEK293 cells assessed as viable cells; assay type: toxicity, cell-based; conditions: read-out: LD50 (the source's name)
[14] = target: Voltage-gated inwardly rectifying potassium channel KCNH2 (Homo sapiens, UniProt Q12809); experiment: Inhibition of hERG; assay type: toxicity
Sequence of Voltage-gated inwardly rectifying potassium channel KCNH2 (Q12809 whole entry): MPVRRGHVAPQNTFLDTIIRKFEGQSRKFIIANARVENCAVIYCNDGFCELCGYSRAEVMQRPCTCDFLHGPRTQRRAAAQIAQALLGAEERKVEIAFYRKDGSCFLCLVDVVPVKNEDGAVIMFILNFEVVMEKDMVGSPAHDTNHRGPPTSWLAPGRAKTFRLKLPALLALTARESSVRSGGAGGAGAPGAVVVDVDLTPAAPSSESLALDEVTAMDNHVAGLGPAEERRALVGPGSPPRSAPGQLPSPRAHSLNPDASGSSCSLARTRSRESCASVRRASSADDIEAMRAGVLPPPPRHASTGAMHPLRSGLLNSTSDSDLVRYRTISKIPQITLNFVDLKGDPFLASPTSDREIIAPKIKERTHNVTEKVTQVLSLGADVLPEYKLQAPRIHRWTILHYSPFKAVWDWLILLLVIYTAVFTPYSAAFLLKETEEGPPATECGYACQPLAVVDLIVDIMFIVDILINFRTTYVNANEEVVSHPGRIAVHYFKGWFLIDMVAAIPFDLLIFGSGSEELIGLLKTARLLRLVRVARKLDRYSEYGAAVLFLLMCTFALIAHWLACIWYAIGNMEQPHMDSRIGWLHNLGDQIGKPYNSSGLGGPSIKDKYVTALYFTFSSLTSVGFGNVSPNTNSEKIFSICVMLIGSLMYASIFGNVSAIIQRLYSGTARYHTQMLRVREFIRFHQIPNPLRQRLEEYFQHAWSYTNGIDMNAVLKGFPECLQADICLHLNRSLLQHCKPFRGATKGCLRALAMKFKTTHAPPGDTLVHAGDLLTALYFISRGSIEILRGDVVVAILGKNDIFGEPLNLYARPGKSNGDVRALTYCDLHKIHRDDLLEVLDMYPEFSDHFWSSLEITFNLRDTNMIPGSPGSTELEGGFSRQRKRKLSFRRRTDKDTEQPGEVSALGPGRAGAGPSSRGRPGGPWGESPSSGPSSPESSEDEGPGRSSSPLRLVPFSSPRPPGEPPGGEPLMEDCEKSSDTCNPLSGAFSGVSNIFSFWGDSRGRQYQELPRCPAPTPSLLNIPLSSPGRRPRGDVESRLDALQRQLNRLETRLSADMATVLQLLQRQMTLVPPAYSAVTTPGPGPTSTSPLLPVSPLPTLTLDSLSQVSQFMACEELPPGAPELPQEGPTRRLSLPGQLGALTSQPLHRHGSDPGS

[15] = Plasma protein binding in human; assay type: ADME, cell-free; conditions: read-out: PPB
[16] = target: Cytochrome P450 2C9 (Homo sapiens, UniProt P11712); experiment: Inhibition of CYP2C9 (unknown origin); assay type: ADME
Sequence of Cytochrome P450 2C9 (P11712 whole entry): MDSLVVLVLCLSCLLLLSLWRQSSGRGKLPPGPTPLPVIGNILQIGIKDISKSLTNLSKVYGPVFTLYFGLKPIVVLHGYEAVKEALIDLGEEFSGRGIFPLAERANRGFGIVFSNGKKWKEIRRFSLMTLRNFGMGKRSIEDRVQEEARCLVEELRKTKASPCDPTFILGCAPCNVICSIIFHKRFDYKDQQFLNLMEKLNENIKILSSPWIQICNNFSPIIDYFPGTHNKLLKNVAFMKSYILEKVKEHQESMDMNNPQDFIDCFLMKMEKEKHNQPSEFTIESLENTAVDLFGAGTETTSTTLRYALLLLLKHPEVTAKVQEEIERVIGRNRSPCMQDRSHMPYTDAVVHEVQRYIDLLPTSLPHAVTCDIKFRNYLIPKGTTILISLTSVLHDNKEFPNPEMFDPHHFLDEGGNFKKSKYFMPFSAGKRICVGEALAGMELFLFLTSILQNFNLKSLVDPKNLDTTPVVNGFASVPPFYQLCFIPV

Structure (SMILES) | IC50 [1] [µM] | IC50 [2] [µM] | half-life at 1 µM [3] [min] | solubility kinetic at 5 min [4] [µM] | logD [5] | further results
N#Cc1ccc(NCc2cnc(-c3ccc(Oc4ccccc4)cc3)s2)nc1 | > 5 | 0.803 | 20 | 5 (≈ 1.92 µg/mL) | – | –
CC(C)Oc1ccc(-c2ncc(CNc3ccnc(Cl)c3)s2)cc1 | 0.302 | 0.045 | 22 | 22 (≈ 7.92 µg/mL) | 5.09 | –
FC(F)(F)c1cc(NCc2ncsc2-c2ccc(Oc3ccccc3)cc2)ccn1 | > 0.005 | > 0.005 | – | – | – | –
CC(C)Nc1ccc(-c2ncc(CNc3ccnc(C(F)(F)F)c3)s2)cc1 | 0.5 | 0.43 | 7 | 39 (≈ 15.3 µg/mL) | – | –
FC(F)(F)c1cc(NCc2csc(-c3ccc(Oc4ccccc4)cc3)n2)ccn1 | 1.4 | 0.053 | 18 | 18 (≈ 7.69 µg/mL) | 5.04 | –
FC(F)(F)c1cc(NCc2nnc(-c3ccc(Oc4ccccc4)cc3)o2)ccn1 | 0.406 | 0.023 | 23 | 46 (≈ 19 µg/mL) | 4.12 | –
COc1ccc(-c2ncc(CNc3ccnc(C(F)(F)F)c3)s2)cc1C | 0.576 | 0.058 | 1 | 45 (≈ 17.1 µg/mL) | 4.02 | –
CC(C)Oc1ccc(-c2ncc(CNc3cc(C#N)nc(C(F)(F)F)c3)s2)cc1Cl | 0.114 | 0.019 | 58 | 25 (≈ 11.3 µg/mL) | 5.01 | –
CC(C)Oc1ccc(-c2ncc(CNc3cc(Cl)nc(Cl)c3)s2)cc1 | 0.088 | 0.029 | 37 | 8 (≈ 3.15 µg/mL) | 5.62 | –
FC(F)(F)c1cc(SCc2cnc(-c3ccc(Oc4ccccc4)cc3)s2)ccn1 | 2.37 | 0.111 | 11 | 7 (≈ 3.11 µg/mL) | 4.03 | –
FC(F)(F)c1cc(OCc2cnc(-c3ccc(Oc4ccccc4)cc3)s2)ccn1 | > 5 | – | – | – | 3.87 | –
CN(C)c1ccc(-c2ncc(CNc3ccnc(C(F)(F)F)c3)s2)cc1 | > 5 | 0.728 | 45 | 13 (≈ 4.92 µg/mL) | – | –
FC(F)(F)c1cc(NCc2cc(-c3ccc(Oc4ccccc4)cc3)no2)ccn1 | 0.338 | 0.03 | 36 | 8 (≈ 3.29 µg/mL) | 5.04 | –
N#Cc1cc(NCc2cnc(-c3ccc(Oc4ccccc4)cc3)s2)ccn1 | 0.29 | 0.03 | 39 | 7 (≈ 2.69 µg/mL) | 3.15 | –
FC(F)(F)c1cc(NCc2cn(-c3ccc(Oc4ccccc4)cc3)nn2)ccn1 | 0.2 | – | 10 | 8 (≈ 3.29 µg/mL) | 4.22 | half-life [6]: > 60 min; IC50 [7]: > 25 µM; viability at 25 µM [8]: 48%; fraction unbound [9]: < 0.01; IC50 [10]: > 25 µM; viability at 25 µM [11]: 55%; CC50 [12]: ~25 µM; CC50 [13]: ~25 µM; IC50 [14]: > 25 µM; fraction unbound [15]: < 0.01; IC50 [16]: > 25 µM
FC(F)(F)c1cc(NCc2cnc(-c3ccc(Cl)cc3)s2)ccn1 | 0.591 | 0.067 | 122 | 36 (≈ 13.3 µg/mL) | 4.28 | –
N#Cc1ccc(NCc2cnc(-c3ccc(Oc4ccccc4)cc3)s2)cn1 | 0.761 | 0.005 | 38 | 6 (≈ 2.31 µg/mL) | 3.52 | –
COc1c(C)cc(-c2ncc(CNc3ccnc(C(F)(F)F)c3)s2)cc1C | > 0.005 | > 0.005 | – | – | – | –

Structure (SMILES) | IC50 [1] [µM] | IC50 [2] [µM] | half-life at 1 µM [3] [min] | solubility kinetic at 5 min [4] [µM] | logD [5] | further results
COc1ccc(-c2ncc(CNc3ccnc(C(F)(F)F)c3)s2)cc1Cl | 0.215 | 0.04 | 1 | 25 (≈ 10 µg/mL) | 4.84 | –
FC(F)(F)c1cc(NCc2ccc(-c3ccc(Oc4ccccc4)cc3)o2)ccn1 | > 5 | – | – | 63 (≈ 25.9 µg/mL) | – | –
FC(F)(F)c1cc(NCc2ncc(-c3ccc(Oc4ccccc4)cc3)s2)ccn1 | 0.515 | 0.051 | 10 | 26 (≈ 11.1 µg/mL) | 5.54 | –
FC(F)(F)c1cc(NCc2nnc(-c3ccc(Oc4ccccc4)cc3)[nH]2)ccn1 | 0.696 | 0.093 | 23 | 48 (≈ 19.7 µg/mL) | 3.96 | –
FC(F)(F)c1cc(NCc2cnc(-c3ccc(Cl)s3)s2)ccn1 | > 5 | 0.086 | 2 | 43 (≈ 16.2 µg/mL) | – | –
FC(F)(F)c1cc(NCc2cnc(-c3ccc(Oc4ccccc4)cc3)s2)ccn1 | 0.274 | 0.017 | 24 | 6 (≈ 2.56 µg/mL) | 3.29 | –
FC(F)(F)c1cc(NCc2cc(-c3ccc(Oc4ccccc4)cc3)n[nH]2)ccn1 | 0.524 | 0.117 | 23 | 15 (≈ 6.16 µg/mL) | 4.35 | –
FC(F)(F)c1cc(NCc2cnc(-c3ccc(Cl)nc3)s2)ccn1 | > 0.005 | 0.221 | 49 | 200 (≈ 74.2 µg/mL) | – | –
CC(C)Oc1ccc(-c2ncc(CNc3cc(C#N)nc(C(F)(F)F)c3)s2)cc1 | 0.226 | 0.084 | 32 | 6 (≈ 2.51 µg/mL) | 5.12 | –
COc1ccc(-c2ncc(CNc3ccnc(C(F)(F)F)c3)s2)cc1 | 0.45 | 0.083 | – | – | – | –
FC(F)(F)c1ccc(NCc2cnc(-c3ccc(Oc4ccccc4)cc3)s2)cn1 | 0.424 | 0.038 | 10 | 8 (≈ 3.42 µg/mL) | 3.42 | –
FC(F)(F)c1cc(NCc2nc(-c3ccc(Oc4ccccc4)cc3)cs2)ccn1 | > 5 | 0.712 | 13 | 45 (≈ 19.2 µg/mL) | – | –
CC(C)Oc1ccc(-c2ncc(CNc3ccnc(C(F)(F)F)c3)s2)cc1 | 0.118 | 0.018 | 29 | 18 (≈ 7.08 µg/mL) | 4.01 | –
CC(C)Oc1ccc(-c2ncc(CNc3cc(Cl)nc(C(F)(F)F)c3)s2)cc1 | 0.087 | 0.008 | 15 | 35 (≈ 15 µg/mL) | 5.4 | –
FC(F)(F)c1cc(NCc2cnc(-c3ccc(C4CC4)cc3)s2)ccn1 | 0.179 | 0.028 | 14 | 7 (≈ 2.63 µg/mL) | 4.19 | –
Clc1cc(NCc2cnc(-c3ccc(Oc4ccccc4)cc3)s2)ccn1 | 0.718 | 0.009 | 55 | 2 (≈ 0.788 µg/mL) | 4.16 | –
CC(C)Oc1ccc(-c2ncc(CNc3cc(Cl)nc(C(F)(F)F)c3)s2)cc1Cl | 0.109 | 0.01 | 28 | 7 (≈ 3.24 µg/mL) | 5.21 | –
